The numbers were not newly measured in patent publication US20240299384A1, “METHODS FOR TREATING PULMONARY HYPERTENSION IN PATIENTS WITH LEFT VENTRICULAR ASSIST DEVICE IMPLANTATION” (ACTELION PHARMACEUTICALS LTD, priority 2021, published 2024), which cites them from elsewhere.

Data set [1] has as its system ET receptors. The settings on record: cited from earlier work.
The conditions of data set [2]: cited from earlier work.

SMILES strings stand for the structures.

Consider `NS(=O)(=O)Nc1ncnc(OCCOc2ncc(Br)cn2)c1-c1ccc(Br)cc1` [ACT-132577], for which the “affinity for the ET receptors relative to parent compound” value in data set [1] is “lower affinity”. Moreover, the “time to peak plasma concentration” value in data set [2] (after the first dose of macitentan) is “about 30 hours”. For the same compound, in data set [2] (humans), the half-life entry is listed as “approximately 48 hours” and the “plasma concentrations relative to macitentan” value is “higher plasma concentrations”.
